In PubChem BioAssay AID1963858 (Molecular Pharmacology Branch, DTP, NCI, 2024):

System: HOP-62 multicell spheroids with HUVEC/MSC, viability
Test: Anticancer human tumor HOP-62 cell line growth inhibition [KRAS2];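 note: viability read after a week of compound exposure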;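 for viability, T/C: 100% = DMSO vehicle-treated spheroids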
Conditions: for IC50: curve of first compound; for viability, T/C: stronger effect = lower value
Source text: Multicellular complex tumor spheroid response to RAS pathway inhibitors in combination with a targeted agents in patient-derived cell lines with oncogenic KRAS variants from multiple cancer types
A high-throughput screen of multi-cell type tumor spheroids was designed to identify active combinations of targeted small molecules and KRAS pathway inhibitors. Complex spheroids include a stromal component modeled by human endothelial cells (HUVEC) and fibroblasts modeled by human mesenchymal stem cells (MSCs). The concentration ranges selected for each drug and investigational agent were based upon clinically achievable concentrations if the clinical Cmax of the agent was known.
Compounds. The drugs and investigational agents: BI-3406 (NSC825286), BAY-293 (NSC824723), batoprotafib (TNO155; NSC825523), sotorasib (AMG 510; NSC818433), MRTX1257 (NSC819558), elimusertib (BAY 1895344; NSC800525), molibresib (GSK525762; NSC774829), temuterkib (LY3214996; NSC803410), venetoclax (NSC766270), alisertib (NSC759677), olaparib (NSC753686), talazoparib (NSC767125), erdafitinib (NSC781556), ipatasertib (NSC767898), cabozantinib (NSC761068), nintedanib (NSC756659), abemaciclib (NSC768073), docetaxel (NSC628503), trametinib (NSC758246), and sapanisertib (NSC764658) were obtained from the National Cancer Institute (NCI) Developmental Therapeutics Program Chemical Repository. The FDA-approved anticancer drug set is available from the Developmental Therapeutics Program. […] The stock solutions were prepared in dimethyl sulfoxide (DMSO, Sigma-Aldrich, St. Louis, MO, cat. D2650) at 800-fold the tested concentration and stored at -70 degrees C prior to their use. All drugs and investigational agents were tested over a range starting from a high concentration at or near the clinical Cmax and decreasing in half-log increments. If the clinical Cmax for an agent had not been determined, the highest concentration tested was 10 microM.
Cell Culture. All cells were maintained in an incubator at 37 degrees C and 5% CO2 with 95% humidity. The PDC lines were cultured according to standard operating procedures established by the NCI PDMR (https://pdmr.cancer.gov/sops/default.htm). Briefly, all PDCs were thawed and cultured in Matrigel-coated flasks prepared with a working solution of 1X Ham's F-12 nutrient mix, without supplementation (Invitrogen, Waltham, MA, cat. 11765054), 100 U/mL penicillin-streptomycin (Invitrogen, cat. 15140122), and 2.5% Matrigel (Corning Inc., Corning, NY, cat. 354248) for the first three passages. All PDCs were cultured in complete DMEM/F-12 media containing advanced DMEM/F-12 (Invitrogen, cat. 12634028), 4.9% defined fetal bovine serum, heat inactivated (HyClone Laboratories Inc., Logan, UT, cat. SH30070.03HI), 389 ng/mL hydrocortisone (Sigma-Aldrich, cat. H4001), 9.7 ng/mL human EGF recombinant protein (Invitrogen, cat. PHG0313), 23.4 microg/mL adenine (Sigma-Aldrich, cat. A2786), 97.3 U/mL penicillin-streptomycin (Invitrogen, cat. 15140122), 1.9 mM L-glutamine (Invitrogen, cat. 25030081), and 9.7 microM Y-27632 dihydrochloride (Tocris Bioscience, Bristol, United Kingdom, cat. 1254). The PDCs were cultured in complete DMEM/F12 media without 9.7 microM Y-27632 dihydrochloride for at least two passages prior to the screen. The established cell line HOP-62 was cultured in RPMI 1640 medium, HEPES (Invitrogen, cat. 22400105) with 10% defined fetal bovine serum (HyClone Laboratories Inc., cat. SH30070.03) and 2 mM L-glutamine (Invitrogen, cat. 25030081). The pooled donor HUVEC were cultured in endothelial cell growth medium 2 (PromoCell, Heidelberg, Germany, cat. C-22011) and the hMSC were cultured in mesenchymal stem cell growth medium 2 (PromoCell, cat. C-28009). For all experiments, HUVEC and hMSC were used at passages </=5, while the malignant cell lines were used at passages </=15. […]

[1] = second compound 0.1 µM, first compound 0.01 µM
[2] = second compound 0.1 µM, first compound 0.0316 µM
[3] = second compound 0.1 µM, first compound 0.1 µM
[4] = second compound 0.1 µM, first compound 0.316 µM
[5] = second compound 0.1 µM, first compound 1 µM
[6] = second compound 0.1 µM, first compound 3.16 µM
[7] = second compound 0.316 µM, first compound 0.01 µM
[8] = second compound 0.316 µM, first compound 0.0316 µM
[9] = second compound 0.316 µM, first compound 0.1 µM
[10] = second compound 0.316 µM, first compound 0.316 µM
[11] = second compound 0.316 µM, first compound 1 µM
[12] = second compound 0.316 µM, first compound 3.16 µM
[13] = second compound 1 µM, first compound 0.01 µM
[14] = second compound 1 µM, first compound 0.0316 µM
[15] = second compound 1 µM, first compound 0.1 µM
[16] = second compound 1 µM, first compound 0.316 µM
[17] = second compound 1 µM, first compound 1 µM
[18] = second compound 1 µM, first compound 3.16 µM
[19] = second compound 3.16 µM, first compound 0.01 µM
[20] = second compound 3.16 µM, first compound 0.0316 µM
[21] = second compound 3.16 µM, first compound 0.1 µM
[22] = second compound 3.16 µM, first compound 0.316 µM
[23] = second compound 3.16 µM, first compound 1 µM
[24] = second compound 3.16 µM, first compound 3.16 µM
[25] = second compound 10 µM, first compound 0.0316 µM
[26] = second compound 10 µM, first compound 0.1 µM
[27] = second compound 10 µM, first compound 0.316 µM
[28] = second compound 10 µM, first compound 1 µM
[29] = second compound 10 µM, first compound 3.16 µM
[30] = second compound 0.1 µM, first compound 10 µM
[31] = second compound 0.316 µM, first compound 10 µM
[32] = second compound 1 µM, first compound 10 µM
[33] = second compound 3.16 µM, first compound 10 µM
[34] = second compound 10 µM, first compound 10 µM

| SMILES | IC50 (second compound 0.1 µM) | IC50 (second compound 0.316 µM) | IC50 (second compound 1 µM) | IC50 (second compound 3.16 µM) | viability, T/C [2] | viability, T/C [3] | viability, T/C [4] | viability, T/C [5] | viability, T/C [6] | viability, T/C [8] | viability, T/C [9] | viability, T/C [10] | viability, T/C [11] | viability, T/C [12] | viability, T/C [14] | viability, T/C [15] | viability, T/C [16] | viability, T/C [17] | viability, T/C [18] | viability, T/C [20] | further results |
| --- | --- | --- | --- | --- | --- | --- | --- | --- | --- | --- | --- | --- | --- | --- | --- | --- | --- | --- | --- | --- | --- |
| CC1COCCN1c1cc(-c2ccnn2C)c2ccnc(-c3ccn[nH]3)c2n1 (stereo not given) + C=CC(=O)N1CCN(c2nc(=O)n(-c3c(C)ccnc3C(C)C)c3nc(-c4c(O)cccc4F)c(F)cc23)C(C)C1 | 27.2 nM | 33.2 nM | 23.3 nM | 12 nM | 48.3% | 15.2% | 11.7% | 11.4% | 8.87% | 51.5% | 19.5% | 12.7% | 10.7% | 9.1% | 44.2% | 19.3% | 11.1% | 10.5% | 10.7% | 33.5% | IC50 (second compound 10 µM): < 10 nM; viability, T/C [1]: 61.3%; viability, T/C [7]: 66.7%; viability, T/C [13]: 65.9%; viability, T/C [19]: 53.1%; viability, T/C [21]: 15.5%; viability, T/C [22]: 11.7%; viability, T/C [23]: 13.3%; viability, T/C [24]: 12.1%; viability, T/C (second compound 10 µM, first compound 0.01 µM): 33%; viability, T/C [25]: 23.9%; viability, T/C [26]: 18.1%; viability, T/C [27]: 15.5%; viability, T/C [28]: 13.8%; viability, T/C [29]: 11.3% |
| CC1OCC2(CCN(c3cnc(Sc4ccnc(N)c4Cl)c(N)n3)CC2)C1N (stereo not given) + C=CC(=O)N1CCN(c2nc(=O)n(-c3c(C)ccnc3C(C)C)c3nc(-c4c(O)cccc4F)c(F)cc23)C(C)C1 | < 31.6 nM | 62.3 nM | 90.5 nM | 134 nM | 47.7% | 39.1% | 26.5% | 16.3% | 12.5% | 63.7% | 39.8% | 28.4% | 19.2% | 15.6% | 67.5% | 47% | 36.9% | 27.4% | 18.2% | 61% | IC50 (second compound 10 µM): < 31.6 nM; viability, T/C [30]: 13.3%; viability, T/C [31]: 13.6%; viability, T/C [32]: 21.5%; viability, T/C [21]: 51.7%; viability, T/C [22]: 42.5%; viability, T/C [23]: 30.1%; viability, T/C [24]: 24.1%; viability, T/C [33]: 24.9%; viability, T/C [25]: 44.6%; viability, T/C [26]: 40.7%; viability, T/C [27]: 30.1%; viability, T/C [28]: 26.2%; viability, T/C [29]: 25.8%; viability, T/C [34]: 23.2% |
| Cn1nccc1Nc1nccc(-c2cc3c(s2)C(C)(C)N(CCN2CCOCC2)C3=O)n1 + C=CC(=O)N1CCN(c2nc(=O)n(-c3c(C)ccnc3C(C)C)c3nc(-c4c(O)cccc4F)c(F)cc23)C(C)C1 | 153 nM | 253 nM | 153 nM | 361 nM | 63.7% | 56.7% | 38.6% | 23.9% | 16.5% | 64.5% | 61.5% | 47.3% | 27.2% | 20.4% | 63.7% | 54.4% | 41.3% | 31.3% | 18.4% | 50% | IC50 (second compound 10 µM): < 31.6 nM; viability, T/C [30]: 17.1%; viability, T/C [31]: 17%; viability, T/C [32]: 24.6%; viability, T/C [21]: 55%; viability, T/C [22]: 52.1%; viability, T/C [23]: 34%; viability, T/C [24]: 25.2%; viability, T/C [33]: 25%; viability, T/C [25]: 46.1%; viability, T/C [26]: 41.5%; viability, T/C [27]: 33.8%; viability, T/C [28]: 28.2%; viability, T/C [29]: 27.6%; viability, T/C [34]: 34.4% |
| CC(=O)OC12COC1CC(O)C1(C)C(=O)C(O)C3=C(C)C(OC(=O)C(O)C(NC(=O)OC(C)(C)C)c4ccccc4)CC(O)(C(OC(=O)c4ccccc4)C21)C3(C)C (stereo not given) + C=CC(=O)N1CCN(c2nc(OCC3CCCN3C)nc3c2CCN(c2cccc4cccc(C)c24)C3)CC1CC#N | < 10 nM | < 10 nM | < 10 nM | < 10 nM | 22.7% | 20.7% | 20.1% | 23.2% | 23.2% | 20.1% | 17.5% | 16.9% | 20.2% | 19.9% | 12.1% | 17.1% | 16.2% | 18.2% | 18.9% | 26.9% | IC50 (second compound 0.0316 µM): < 10 nM; viability, T/C (second compound 0.0316 µM, first compound 0.01 µM): 31.2%; viability, T/C (second compound 0.0316 µM, first compound 0.0316 µM): 26.2%; viability, T/C (second compound 0.0316 µM, first compound 0.1 µM): 26.6%; viability, T/C (second compound 0.0316 µM, first compound 0.316 µM): 28.6%; viability, T/C (second compound 0.0316 µM, first compound 1 µM): 30.2%; viability, T/C (second compound 0.0316 µM, first compound 3.16 µM): 35.1%; viability, T/C [1]: 19.4%; viability, T/C [7]: 18.7%; viability, T/C [13]: 18.7%; viability, T/C [19]: 27.7%; viability, T/C [21]: 23.2%; viability, T/C [22]: 28.5%; viability, T/C [23]: 25.5%; viability, T/C [24]: 27.6% |
